Test results: patent publication US20230127559A1, “PEPTIDE ANALOGS AND USE OF SAME IN TREATING DISEASES, DISORDERS OR CONDITIONS ASSOCIATED WITH MUTANT P53 PROTEIN” (YEDA RESEARCH AND DEVELOPMENT CO. LTD., priority 2020, published 2023)
Like-named read-outs stand apart in the source and are kept apart here. Where a SMILES comes first, the peptide text is derived from it. Bridges are numbered along the chain shown (N, C = ends). [ ]: non-standard residue; d: D form. The star is where a group is joined. Docosanoyl = CCCCCCCCCCCCCCCCCCCCCC(=O)*; Oic = O=C(O)[C@@H]1C[C@@H]2CCCC[C@@H]2N1; Arachidoyl = CCCCCCCCCCCCCCCCCCCC(=O)*; Stearoyl = CCCCCCCCCCCCCCCCCC(=O)*; Palmitoyl = CCCCCCCCCCCCCCCC(=O)*; Tic = O=C(O)[C@@H]1Cc2ccccc2CN1; dTic = O=C(O)[C@H]1Cc2ccccc2CN1; Dab = NCC[C@H](N)C(=O)O

Experiments:
[1] = system: RXF-393 (renal carcinoma) cells, p53R175H; type: cell-based, human; conditions: for IC50: 48 h; for increase in efficacy relative to pCAP-553: FIG. 17, effect of fatty acid length
Protocol: (§1) Cells were cultured in 96 wells plates with 2500-4000 cells/well. Serial dilutions of different peptides were added and the plates incubated for additional 48 h at 37° C. Then medium was removed and cell viability was determined by staining the cells with crystal violet (0.05%) in methanol/PBS (1:5, v/v), for 10 min, followed by 3 washes with PBS. 10% acetic acid was added to each well for 10 min. OD was determined at 595 nm.
(§2) The IC50 tables presented in FIGS. 17-20 are from several representative experiments performed on cell lines expressing several p53 hotspot mutations, as well as control non-transformed cells:
Fatty acid position. Lead peptides were modified with N-terminal myristic acid to enable the penetration of peptides across the cell membrane. Although myristic acid is usually the default choice for cell permeability, additional options were explored of longer fatty acids and to examine the effect on peptide efficacy in terms of cancer cell killing. A standard crystal violet viability test was performed on human renal carcinoma RXF-393 cells, comparing the original pCAP-553, which has myristic acid (C14), with 4 derivative peptides modified with longer fatty acid chains: palmitic (C16), stearic (C18), […] (C20) and behenic (C22).

[2] = system: PC9 (lung carcinoma) cells, p53R248Q; type: cell-based; conditions: 48 h
Protocol: as §1
(§3) The IC50 tables presented in FIGS. 17-20 are from several representative experiments performed on cell lines expressing several p53 hotspot mutations, as well as control non-transformed cells: […]

[3] = system: SW-480 (colon carcinoma) cells, p53R273H, P309S; type: cell-based; conditions: 48 h
Protocol: as §1, §3

[4] = system: WI38 (non-transformed fibroblasts) cells, wtp53; type: cell-based; conditions: 48 h
Protocol: as §1, §3

[5] = system: PANC1 (pancreatic carcinoma) cells, p53R273H; type: cell-based; conditions: 48 h
Protocol: as §1, §3

[6] = system: MIA PaCa-2 (pancreatic carcinoma) cells, p53R248W; type: cell-based; conditions: 48 h
Protocol: as §1, §3

[7] = system: panel of cell lines expressing mutp53; type: cell-based
Protocol: as §1, §2
Proline residue position—Based on alanine scanning and molecular dynamics analyses, it is believed that the proline residue at the 6th position from the N-terminal is critical for the peptide's 3D structure and provides some rigidity required for peptide binding and activity. Therefore, it was hypothesized that a change in orientation or tetrahedral angle might increase the affinity of the peptide for p53. Six new peptides were synthesized replacing this proline residue with proline analogs (pCAPs 708-712, and pCAP-716, SEQ ID NOS: 6-10 and 14, respectively). This set of peptides was tested for activity on a panel of cell lines expressing mutp53, and compared it to pCAP-674 (SEQ ID NO: 27) and to the scrambled sequence peptides pCAP-721 (SEQ ID NO: 19) and pCAP-722 (SEQ ID NO: 20).

IC50 [1] [µM]	IC50 [2] [µM]	IC50 [3] [µM]	IC50 [5] [µM]	IC50 [6] [µM]	IC50 ([7]; 48 h) [µM]	Compound	IC50 [4] [µM]	increase in efficacy relative to pCAP-553 [1]	activity in viability assays compared with other peptides (in words) [7]	activity in viability assays compared with other peptides (in words) ([7]; listed as 708)
0.48	0.25	0.54	–	–	–	CCCCCCCCCCCCCCCCCC(=O)N[C@@H](CCCNC(=N)N)C(=O)N[C@@H](CCCNC(=N)N)C(=O)N[C@H]1CCCCNC(=O)[C@H](CC(=O)O)NC(=O)[C@@H]2CCCN2C(=O)[C@H](CCN)NC(=O)[C@@H]2CCCN2C(=O)[C@@H](C(C)C)NC(=O)[C@H](CO)NC(=O)[C@H](Cc2c[nH]cn2)NC1=O [pCAP-715, str-RRKHSvP(Dab)PD-Cyc] (Stearoyl-RRKHS[dV]P[Dab]PD; lactam 3-C)	> 40	–	–	–
–	0.21	0.6	–	–	–	CCCCCCCCCCCCCCCCCC(=O)N[C@@H](CCCNC(=N)N)C(=O)N[C@@H](CCCNC(=N)N)C(=O)N[C@@H](Cc1c[nH]cn1)C(=O)N[C@@H](CO)C(=O)N[C@@H](C(=O)N1CCC[C@H]1C(=O)N[C@@H](CCN)C(=O)N1CCC[C@H]1C(=O)N[C@@H](CC(=O)O)C(N)=O)C(C)C [pCAP-674, str-RRHSvP(Dab)PD-NH2] (Stearoyl-RRHS[dV]P[Dab]PD-NH2)	36	four-fold increase in efficacy	–	–
1.5	1.5	3	–	–	–	CCCCCCCCCCCCCCCCCCCCCC(=O)N[C@@H](CCCNC(=N)N)C(=O)N[C@@H](CCCNC(=N)N)C(=O)N[C@@H](Cc1c[nH]cn1)C(=O)N[C@@H](CO)C(=O)N[C@@H](C(=O)N1CCC[C@H]1C(=O)N[C@@H](CCN)C(=O)N1CCC[C@H]1C(=O)N[C@@H](CC(=O)O)C(N)=O)C(C)C [pCAP-707, Beh-RRHSvP(Dab)PD-NH2] (Docosanoyl-RRHS[dV]P[Dab]PD-NH2)	12	–	–	–
0.57	0.8	1.09	–	–	–	CCCCCCCCCCCCCCCCCC(=O)N[C@@H](CCCNC(=N)N)C(=O)N[C@@H](CCCNC(=N)N)C(=O)N[C@H]1CCCCNC(=O)[C@H](CC(=O)O)NC(=O)[C@@H]2CCCN2C(=O)[C@H](CCN)NC(=O)[C@@H]2CCCN2C(=O)[C@@H](C(C)C)NC(=O)[C@H](CO)NC1=O [pCAP-714, str-RRKSvP(Dab)PD-Cyc] (Stearoyl-RRKS[dV]P[Dab]PD; lactam 3-C)	> 40	–	–	–
0.37	0.72	–	2.21	–	–	CCCCCCCCCCCCCCCCCC(=O)N[C@@H](CCCNC(=N)N)C(=O)N[C@@H](CCCNC(=N)N)C(=O)N[C@@H](Cc1c[nH]cn1)C(=O)N[C@@H](CO)C(=O)N[C@@H](C(=O)N1CCC[C@H]1C(=O)N[C@@H](CCN)C(=O)N1CCC[C@H]1C(=O)N[C@@H](CC(=O)O)C(N)=O)C(C)C [pCAP-718, str-RRHSvP(Dab)PD-NH2 ion ex] (Stearoyl-RRHS[dV]P[Dab]PD-NH2)	> 40	–	–	–
> 40	> 40	–	> 40	–	–	CCCCCCCCCCCCCCCCCC(=O)N[C@@H](CCCNC(=N)N)C(=O)N[C@@H](CC(=O)O)C(=O)N1CCC[C@H]1C(=O)N[C@@H](Cc1c[nH]cn1)C(=O)N[C@@H](C(=O)N[C@@H](CO)C(=O)N1CCC[C@H]1C(=O)N[C@@H](CCCNC(=N)N)C(=O)N[C@@H](CCN)C(N)=O)C(C)C [pCAP-723, str-RDPHvSPR(Dab)-NH2, reference compound] (Stearoyl-RDPH[dV]SPR[Dab]-NH2)	> 40	–	–	–
–	–	–	–	1	–	CCCCCCCCCCCCCC(=O)N[C@@H](CCCNC(=N)N)C(=O)N[C@@H](CCCNC(=N)N)C(=O)N[C@@H](Cc1c[nH]cn1)C(=O)N[C@@H](CO)C(=O)N[C@H](C(=O)N1CCC[C@H]1C(=O)N[C@@H](Cc1c[nH]cn1)C(=O)N1CCC[C@H]1C(=O)N[C@@H](CC(=O)O)C(=O)O)[C@@H](C)O [pCAP-250, myr-RRHSTPHPD]	> 40	–	–	–
0.4	0.26	0.8	–	–	–	CCCCCCCCCCCCCCCCCCCC(=O)N[C@@H](CCCNC(=N)N)C(=O)N[C@@H](CCCNC(=N)N)C(=O)N[C@@H](Cc1c[nH]cn1)C(=O)N[C@@H](CO)C(=O)N[C@@H](C(=O)N1CCC[C@H]1C(=O)N[C@@H](CCN)C(=O)N1CCC[C@H]1C(=O)N[C@@H](CC(=O)O)C(N)=O)C(C)C [pCAP-706, arc-RRHSvP(Dab)PD-NH2] (Arachidoyl-RRHS[dV]P[Dab]PD-NH2)	15	–	–	–
2.6	1.6	3	–	–	–	CCCCCCCCCCCCCCCCCC(=O)N[C@@H](CCCNC(=N)N)C(=O)N[C@@H](CCCNC(=N)N)C(=O)N[C@@H](Cc1c[nH]cn1)C(=O)N[C@@H](CO)C(=O)N[C@@H](C(=O)N1[C@H](C(=O)N[C@@H](CCN)C(=O)N2CCC[C@H]2C(=O)N[C@@H](CC(=O)O)C(N)=O)C[C@@H]2CCCC[C@@H]21)C(C)C [pCAP-711, str-RRHSv(Oic)(Dab)PD] (Stearoyl-RRHS[dV][Oic][Dab]PD-NH2; N-terminus and C-terminus assumed)	> 40	–	–	–
–	–	–	–	0.5	0.12 to 1.3	CCCCCCCCCCCCCCCCCC(=O)N[C@@H](CCCNC(=N)N)C(=O)N[C@@H](CCCNC(=N)N)C(=O)N[C@@H](Cc1c[nH]cn1)C(=O)N[C@@H](CO)C(=O)N[C@@H](C(=O)N1CCC[C@@H]1C(=O)N[C@@H](CCN)C(=O)N1CCC[C@H]1C(=O)N[C@@H](CC(=O)O)C(N)=O)C(C)C [pCAP-708, str-RRHSvp(Dab)PD-NH2] (Stearoyl-RRHS[dV][dP][Dab]PD-NH2)	32	–	consistently modestly improved activity over pCAP-674	highest activity
0.3	0.8	1.2	–	0.3	–	CCCCCCCCCCCCCCCCCC(=O)N[C@@H](CCCNC(=N)N)C(=O)N[C@@H](CCCNC(=N)N)C(=O)N[C@@H](Cc1c[nH]cn1)C(=O)N[C@@H](CO)C(=O)N[C@@H](C(=O)N1CCC[C@@H]1C(=O)N[C@@H](CCN)C(=O)N1CCC[C@H]1C(=O)N[C@H](CC(=O)O)C(=O)NCC(=O)N[C@@H](CCCNC(=N)N)C(=O)O)C(C)C [pCAP-721, str-RRHSvp(Dab)PdGR] (Stearoyl-RRHS[dV][dP][Dab]P[dD]GR-OH; C-terminus assumed)	–	–	comparable activity to pCAP-717	–
–	–	–	–	–	–	pam-RRHSvP(Dab)PD-NH2 (Palmitoyl-RRHS[dV]P[Dab]PD-NH2) [pCAP-673, pam—Palmitic]	–	two-fold increase in efficacy	–	–
0.6	1.2	1.5	–	1	–	CCCCCCCCCCCCCCCCCC(=O)N[C@@H](CCCNC(=N)N)C(=O)N[C@@H](CCCNC(=N)N)C(=O)N[C@@H](Cc1c[nH]cn1)C(=O)N[C@@H](CO)C(=O)N[C@@H](C(=O)N1Cc2ccccc2C[C@H]1C(=O)N[C@@H](CCN)C(=O)N1CCC[C@H]1C(=O)N[C@@H](CC(=O)O)C(N)=O)C(C)C [pCAP-712, str-RRHSv(Tic)(Dab)PD-NH2] (Stearoyl-RRHS[dV][Tic][Dab]PD-NH2)	–	–	highest activity	–
0.46	0.57	–	2.18	–	–	CCCCCCCCCCCCCCCCCC(=O)N[C@@H](CCCNC(=N)N)C(=O)N[C@@H](CCCNC(=N)N)C(=O)N[C@@H](Cc1c[nH]cn1)C(=O)N[C@@H](CO)C(=O)N[C@H](CCCCN)C(=O)N1Cc2ccccc2C[C@@H]1C(=O)N[C@@H](CCN)C(=O)N1CCC[C@H]1C(=O)N[C@@H](CC(=O)O)C(N)=O [pCAP-719, str-RRHSk(tic)(Dab)PD-NH2] (Stearoyl-RRHS[dK][dTic][Dab]PD-NH2)	29	–	–	–
